Source: US12421254B2, “KRAS modulators and uses thereof” (Quanta Therapeutics, Inc., priority 2023, dated 2025)

Experiments:
[1] = test system: phospho-ERK in GP2D (KRAS-G12D) cells; assay: pERK In Cell Western (ICW) assay (Method B), GP2D; format: cell-based
Outline: (§1)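 Here IC50 reflects phospho-ERK suppression after 3 h compound exposure at 37 °C in cells grown in 10% FBS medium. Signal is normalized to DRAQ5 DNA stain and to blank control wells.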

[2] = biological target: GST-tagged KRAS-G12D (2-169) (Homo sapiens, UniProt P01116, G12D); assay: Nucleotide exchange assay (NEA), SOS-mediated, HTRF, KRAS G12D; format: biochemical; conditions: Table 4; IC50 extracted at 30 min; 20 nM SOScat; read-out: NEA G12D IC50
Outline: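 Compound preincubated 1 h at RT with 0.25 nM GST-KRAS-G12D (2-169) and anti-GST Tb donor, then 20 nM SOS1cat (564-1049) and 150 nM GTP-DY-647P1 added; pH 7.3 HEPES buffer with MgCl2 and DTT. HTRF monitored at RT; % inhibition versus DMSO and no-SOS blank, 4-parameter IC50 taken at 30 min.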

[3] = test system: phospho-ERK in SW620 (KRAS-G12V) cells; assay: pERK In Cell Western (ICW) assay (Method B), SW620; format: cell-based
Outline: as §1

[4] = biological target: GST-tagged KRAS-G12V (2-169) (Homo sapiens, UniProt P01116, G12V); assay: Nucleotide exchange assay (NEA), SOS-mediated, HTRF, KRAS G12V; format: biochemical; conditions: Table 4; IC50 extracted at 90 min; 80 nM SOS
Outline: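 GST-KRAS-G12V (2-169), 0.25 nM, pre-incubated 1 h at RT with compound, then SOS1cat (564-1049) 80 nM and GTP-DY-647P1 150 nM added in HEPES pH 7.3 buffer with MgCl2 and DTT. HTRF via anti-GST Tb cryptate read over 90 min; IC50 from 4-parameter fit at 90 min, blanked to no-SOS reactions.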

[5] = Homo sapiens, SW-620, 3 h, Table 4

Sequence of GST-tagged KRAS-G12D (2-169) (P01116 2-169 isoform P01116-2 G12D): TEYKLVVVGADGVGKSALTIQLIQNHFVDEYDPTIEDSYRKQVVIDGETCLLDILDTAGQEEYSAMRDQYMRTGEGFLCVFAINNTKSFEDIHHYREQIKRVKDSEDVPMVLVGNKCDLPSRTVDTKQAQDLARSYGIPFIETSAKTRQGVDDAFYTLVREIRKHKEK
Sequence of GST-tagged KRAS-G12V (2-169) (P01116 2-169 isoform P01116-2 G12V): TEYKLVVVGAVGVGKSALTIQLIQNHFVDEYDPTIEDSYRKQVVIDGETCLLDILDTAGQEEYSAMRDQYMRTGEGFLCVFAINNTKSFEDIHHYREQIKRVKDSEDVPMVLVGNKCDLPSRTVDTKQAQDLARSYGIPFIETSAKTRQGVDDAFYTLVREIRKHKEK

SMILES | IC50 ([1]; GP2d, 3 h, Table 4) [nM] | IC50 [2] [nM] | IC50 [3, 5] [nM] | IC50 [4] [nM] | IC50 ([1]; Table 4, 3 hours) [nM] | IC50 ([3]; Table 4, 3 hours) [nM]
N#Cc1c(N)sc2c1C1(CN(c3nc(OC[C@@]45CCCN4C[C@H](F)C5)nc(N(CC(N)=O)Cc4cccnc4N)n3)C1)SC2 [Compound 194, 2-[[4-(2-amino-3-cyano-spiro[6H-thieno[3,4-b]thiophene-4,3′-azetidine]-1′-yl)-6-[[(2R,8S)-2-fluoro-1,2,3,5,6,7-hexahydropyrrolizin-8-yl]methoxy]-1,3,5-triazin-2-yl]-[(2-amino-3-pyridyl)methyl]amino]acetamide] | 1000 to 20000 | < 10 | 1000 to 20000 | < 10 |  | 
CN(C)CC1(COc2nc(N3CC4(C3)SCc3sc(N)c(C#N)c34)nc(N3CCC[C@@](C)(O)C3)n2)CC1(F)F (stereo partly drawn) [Compound 104, 2-amino-1′-[4-[[1-[(dimethylamino)methyl]-2,2-difluoro-cyclopropyl]methoxy]-6-[(3R)-3-hydroxy-3-methyl-1-piperidyl]-1,3,5-triazin-2-yl]spiro[6H-thieno[2,3-c]thiophene-4,3′-azetidine]-3-carbonitrile] | < 10 | < 10 | 10 to 100 | < 10 |  | 
CC(c1cncnc1N)N(C)c1nc(OC[C@@]23CCCN2C[C@H](F)C3)nc(N2CC3(CCc4sc(N)c(C#N)c43)C2)n1 (stereo partly drawn) [Compound 108, 2-amino-1′-[4-[1-(4-aminopyrimidin-5-yl)ethyl-methyl-amino]-6-[[(2R,8S)-2-fluoro-1,2,3,5,6,7-hexahydropyrrolizin-8-yl]methoxy]-1,3,5-triazin-2-yl]spiro[5,6-dihydrocyclopenta[b]thiophene-4,3′-azetidine]-3-carbonitrile] | 10 to 100 | < 10 | 10 to 100 | < 10 |  | 
N#Cc1c(N)sc2c1C1(CC2)CN(c2nc(OC[C@@]34CCCN3C[C@H](F)C4)nc(N3CCCC(O)(C(F)F)C3)n2)C1 (stereo partly drawn) [Compound 87, 2-amino-1′-[4-[3-(difluoromethyl)-3-hydroxy-1-piperidyl]-6-[[(2R,8S)-2-fluoro-1,2,3,5,6,7-hexahydropyrrolizin-8-yl]methoxy]-1,3,5-triazin-2-yl]spiro[5,6-dihydrocyclopenta[b]thiophene-4,3′-azetidine]-3-carbonitrile] | 100 to 1000 | 10 to 100 | 1000 to 20000 | 10 to 100 |  | 
CCN(c1nc(OC[C@@]23CCCN2C[C@H](F)C3)nc(N2CC3(CCc4sc(N)c(C#N)c43)C2=O)n1)[C@H](C)c1cccnc1N (stereo partly drawn) [Compound 201, 2-amino-1′-[4-[[(1R)-1-(2-amino-3-pyridyl)ethyl]-ethyl-amino]-6-[[(2R,8S)-2-fluoro-1,2,3,5,6,7-hexahydropyrrolizin-8-yl]methoxy]-1,3,5-triazin-2-yl]-2′-oxo-spiro[5,6-dihydrocyclopenta[b]thiophene-4,3′-azetidine]-3-carbonitrile] | 10 to 100 | < 10 | 10 to 100 | < 10 |  | 
CC(c1cccnc1N)N(C)c1nc(OC[C@@]23CCCN2C[C@H](F)C3)nc(N2CC3(C2)SCc2sc(N)c(C#N)c23)n1 (single isomer, unassigned) [Compound 120B, 2-amino-1′-[4-[[(1*)-1-(2-amino-3-pyridyl)ethyl]-methyl-amino]-6-[[(2R,8S)-2-fluoro-1,2,3,5,6,7-hexahydropyrrolizin-8-yl]methoxy]-1,3,5-triazin-2-yl]spiro[6H-thieno[3,4-b]thiophene-4,3′-azetidine]-3-carbonitrile] |  | < 10 |  | < 10 | 10 to 100 | 10 to 100
CN(Cc1c(F)ccnc1N)c1nc(OC[C@@]23CCCN2C[C@H](F)C3)nc(N2CC3(C2)SCc2sc(N)c(C#N)c23)n1 [Compound 179, 2-amino-1′-[4-[(2-amino-4-fluoro-3-pyridyl)methyl-methyl-amino]-6-[[(2R,8S)-2-fluoro-1,2,3,5,6,7-hexahydropyrrolizin-8-yl]methoxy]-1,3,5-triazin-2-yl]spiro[6H-thieno[2,3-c]thiophene-4,3′-azetidine]-3-carbonitrile] | 100 to 1000 | 10 to 100 | 10 to 100 | < 10 |  | 
N#Cc1c(N)sc2c1C1(CC2)CN(c2nc(OC[C@@]34CCCN3C[C@H](F)C4)nc(N3CCOCC(C#N)C3)n2)C1 (single isomer, unassigned) [Compound 91B, (6*)-4-[4-(2-amino-3-cyano-spiro[5,6-dihydrocyclopenta[b]thiophene-4,3′-azetidine]-1′-yl)-6-[[(2R,8S)-2-fluoro-1,2,3,5,6,7-hexahydropyrrolizin-8-yl]methoxy]-1,3,5-triazin-2-yl]-1,4-oxazepane-6-carbonitrile] |  | < 10 |  | < 10 | 100 to 1000 | 10 to 100
N#Cc1c(N)sc2c1C1(CC2)CN(c2nc(NCc3ccn[nH]3)nc(OC[C@@]34CCCN3C[C@H](F)C4)n2)C1 [Compound 84, 2-amino-1′-[4-[[(2R,8S)-2-fluoro-1,2,3,5,6,7-hexahydropyrrolizin-8-yl]methoxy]-6-(1H-pyrazol-5-ylmethylamino)-1,3,5-triazin-2-yl]spiro[5,6-dihydrocyclopenta[b]thiophene-4,3′-azetidine]-3-carbonitrile] | 1000 to 20000 | 100 to 1000 | ≥ 20000 | 100 to 1000 |  | 
CCN(c1nc(OCC23CCC(COC2)N3)nc(N2CC3(C2)SCc2sc(N)c(C#N)c23)n1)[C@H](C)c1cccnc1N (stereo partly drawn) [Compound 204, 1-(4-((3-oxa-8-azabicyclo[3.2.1]octan-1-yl)methoxy)-6-(((R)-1-(2-aminopyridin-3-yl)ethyl)(ethyl)amino)-1,3,5-triazin-2-yl)-2′-amino-6′H-spiro[azetidine-3,4′-thieno[3,4-b]thiophene]-3′-carbonitrile] | 100 to 1000 | 10 to 100 | 10 to 100 | < 10 |  | 
C[C@@]1(O)C[C@@H](O)CN(c2nc(OC[C@@]34CCCN3C[C@H](F)C4)nc(N3CC4(CCc5sc(N)c(C#N)c54)C3)n2)C1 [Compound 47, 2-amino-1′-[4-[(3R,5R)-3,5-dihydroxy-3-methyl-1-piperidyl]-6-[[(2R,8S)-2-fluoro-1,2,3,5,6,7-hexahydropyrrolizin-8-yl]methoxy]-1,3,5-triazin-2-yl]spiro[5,6-dihydrocyclopenta[b]thiophene-4,3′-azetidine]-3-carbonitrile] | 100 to 1000 | < 10 | ≥ 20000 | < 10 |  | 
CC(c1ccn[nH]1)N(C)c1nc(OC[C@@]23CCCN2C[C@H](F)C3)nc(N2CC3(CCc4sc(N)c(C#N)c43)C2)n1 (stereo partly drawn) [Compound 129, 2-amino-1′-[4-[methyl-[1-(1H-pyrazol-5-yl)ethyl]amino]-6-[[(2R,8S)-2-fluoro-1,2,3,5,6,7-hexahydropyrrolizin-8-yl]methoxy]-1,3,5-triazin-2-yl]spiro[5,6-dihydrocyclopenta[b]thiophene-4,3′-azetidine]-3-carbonitrile] | 1000 to 20000 | 100 to 1000 | 1000 to 20000 | < 10 |  | 
C[C@H](c1cccnc1N)N(CC(F)F)c1nc(OC[C@@]23CCCN2C[C@H](F)C3)nc(N2CC3(C2)SCc2sc(N)c(C#N)c23)n1 [Compound 183, 2-amino-1′-[4-[[(1R)-1-(2-amino-3-pyridyl)ethyl]-(2,2-difluoroethyl)amino]-6-[[(2R,8S)-2-fluoro-1,2,3,5,6,7-hexahydropyrrolizin-8-yl]methoxy]-1,3,5-triazin-2-yl]spiro[6H-thieno[3,4-b]thiophene-4,3′-azetidine]-3-carbonitrile] | < 10 | < 10 | < 10 | < 10 |  | 
N#Cc1c(N)sc2c1C1(CC2)CN(c2nc(OCC3(CN4CCOCC4)CC3)nc(N3CCCCC(C#N)C3)n2)C1 (stereo not drawn) [Compound 86, 2-amino-1′-[4-(3-cyanoazepan-1-yl)-6-[[1-(morpholinomethyl)cyclopropyl]methoxy]-1,3,5-triazin-2-yl]spiro[5,6-dihydrocyclopenta[b]thiophene-4,3′-azetidine]-3-carbonitrile] | 100 to 1000 | 10 to 100 | 1000 to 20000 | 10 to 100 |  | 
N#Cc1c(N)sc2c1C1(CC2)CN(c2nc(OC[C@@]34CCCN3C[C@H](F)C4)nc(N3CCOCC(C#N)C3)n2)C1 (single isomer, unassigned) [Compound 91A, (6*)-4-[4-(2-amino-3-cyano-spiro[5,6-dihydrocyclopenta[b]thiophene-4,3′-azetidine]-1′-yl)-6-[[(2R,8S)-2-fluoro-1,2,3,5,6,7-hexahydropyrrolizin-8-yl]methoxy]-1,3,5-triazin-2-yl]-1,4-oxazepane-6-carbonitrile] | 100 to 1000 | < 10 |  | < 10 |  | 100 to 1000
